Consider four compounds from patent US20140220110A1, “REMOTE LOADING OF SPARINGLY WATER-SOLUBLE DRUGS INTO LIPOSOMES” (ZONEONE PHARMA, INC., priority 2013, published 2014).

The conditions of data set [1]: cited from earlier work.
A short description of data set [2]: Remote loading of aripiprazole precipitate into liposomes. It is filed as physicochemical. How it is done: Liposomes (HSPC/Chol/PEG-DSPE 3/2/0.15 mol/mol/mol) containing 250 mM ammonium sulfate or 250 mM sodium sulfate were diluted in 1 mL of 50 mM citric acid, 10% (wt/wt) sucrose, pH 4.0 to a concentration of 6 mM phospholipid. […] Fine precipitates were immediately observed after the drug was added to both liposome samples. The samples were heated at 65° C. for 30 min, the cooled on ice. The samples were filtered through a 0.2 um polyethersulfone syringe filter to remove any drug precipitates, followed by purification on a Sephadex G25 column equilibrated with HBS, pH 6.5 to remove any soluble extraliposome drug. The turbid fraction was collected and analyzed for lipid and drug as described above.

Another data set can be described thus: Water solubility. It is filed as physicochemical.
Data set [3] is described as follows: Remote loading of doxorubicin and 17-DMAG into ammonium sulfate liposomes with and without 25% DMSO. It is filed as physicochemical. The following applies: ammonium sulfate containing liposomes. The source says:
To test the integrity of the liposomes in 25% DMSO we attempted to remote load the water-soluble weak base drugs doxorubicin and 17-dimethylaminoethylamino-17-demethoxygeldanamycin (17-DMAG) and compared to the same loading without DMSO.

Each structure is given as a SMILES string. Values after ≈ are worked out from the molar mass of the structure shown.

As for `O=C(O)c1ccc(-n2nc(-c3ccccc3O)nc2-c2ccccc2O)cc1` [deferasirox], the water solubility in data set [1] is around 38 µg/mL (≈ 102 µM).

In the case of `O=C1CCc2ccc(OCCCCN3CCN(c4cccc(Cl)c4Cl)CC3)cc2N1` [aripiprazole], the “Output D/L” value turned out to be 42.28 ± 0.49 µg/µmol in data set [2] ((NH4)2SO4 liposomes, input D/L 50 ug/umol) and 0.86 ± 0.51 µg/µmol in data set [2] ((Na)2SO4 liposomes, input D/L 50 ug/umol). Also, the loading efficiency in data set [2] (drug introduced as SBCD complex (from Abilify), same concentration and loading conditions) stood at 68%. In addition, the “Fold Increase NH4SO4/NaSO4” value in data set [2] (input D/L 50 ug/umol) was 49.3. The solubility in water entry in “Water solubility” is recorded as “very insoluble in water”.

Turning to `CO[C@H]1/C=C\C=C(/C)C(=O)NC2=CC(=O)C(NCCN(C)C)=C(C[C@@H](C)C[C@H](OC)[C@H](O)[C@@H](C)/C=C(\C)[C@@H]1OC(N)=O)C2=O` [Formulation 17-DMAG, 17-dimethylaminoethylamino-17-demethoxygeldanamycin], the “% Efficiency compared to control of no DMSO” value in data set [3] was 73.1 ± 1.4%.

For `COc1cccc2c1C(=O)c1c(O)c3c(c(O)c1C2=O)C[C@@](O)(C(=O)CO)C[C@@H]3O[C@H]1C[C@H](N)[C@H](O)[C@H](C)O1` [doxorubicin], the “% Efficiency compared to control of no DMSO” value in data set [3] worked out at 92.7 ± 0.43%.
